The source of these data is patent publication US10584114B2, “Inhibitors of RET” (BLUEPRINT MEDICINES CORPORATION, priority 2015, dated 2020).

Each structure is given as a SMILES string.

The target of one assay is RET V804L (Homo sapiens (Human), UniProt P07949, V804L). Briefly: RET V804L Gatekeeper Mutant Assay at KM (Caliper electrophoretic mobility shift). It is filed as biochemical. As to conditions: 10 μM ATP, 25° C., 120 minutes.
A further assay concerns the target wild type RET (Homo sapiens (Human), UniProt P07949). Briefly: RET Wild Type Assay at KM (Caliper electrophoretic mobility shift). It is filed as biochemical. As to conditions: 25 μM ATP, 25° C., 120 minutes.

The IC50 is the concentration at which inhibition is half-maximal.

Sequence of RET V804L (P07949 658-1114 V804L): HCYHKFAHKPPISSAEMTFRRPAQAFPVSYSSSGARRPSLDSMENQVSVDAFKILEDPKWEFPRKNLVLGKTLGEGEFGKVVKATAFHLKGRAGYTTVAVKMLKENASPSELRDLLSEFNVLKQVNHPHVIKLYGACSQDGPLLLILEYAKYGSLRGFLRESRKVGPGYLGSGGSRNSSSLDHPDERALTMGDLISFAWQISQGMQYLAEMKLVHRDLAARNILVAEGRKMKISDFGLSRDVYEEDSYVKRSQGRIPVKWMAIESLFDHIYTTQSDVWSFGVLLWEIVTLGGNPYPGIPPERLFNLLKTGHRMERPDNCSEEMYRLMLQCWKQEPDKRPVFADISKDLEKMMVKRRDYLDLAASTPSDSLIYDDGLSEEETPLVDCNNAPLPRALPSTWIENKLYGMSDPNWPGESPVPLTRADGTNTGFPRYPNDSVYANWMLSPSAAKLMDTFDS
Sequence of wild type RET (P07949 658-1114): as the sequence (P07949 658-1114 V804L) above, with L147V counted along it

As for `Cc1cc(Nc2cc(C)[nH]n2)nc([C@@H]2CC[C@@H](C(=O)N[C@@H](C)c3ccc(-n4cc(F)cn4)nc3)[C@@H](C)C2)n1` [Compound 116], the IC50 is 10 to 100 nM at RET V804L and greater than 100 nM at wild type RET.
On to `CO[C@]1(C(=O)N[C@@H](C)c2ccc(-n3cc(F)cn3)nc2)CC[C@](O)(c2cc(C)cc(Nc3cc(C)[nH]n3)n2)CC1` [Compound 137], for which the half-maximal inhibitory concentration (IC50) on RET V804L and on wild type RET was greater than 100 nM in each case.
As to `Cc1cc(Nc2cc(C)[nH]n2)nc([C@H]2CC[C@H](C(=O)NCc3ccc(-n4nc(C)cc4C)nc3)CC2)n1` [Compound 106], the IC50 at RET V804L is 10 to 100 nM; on wild type RET it was less than 10 nM.
On to `Cc1cc(Nc2cc(C)[nH]n2)nc([C@@H]2CC[C@@H](C(=O)N[C@@H](C)c3ccc(-n4cc(F)cn4)nc3)C(C)(C)C2)n1` [Compound 124], for which the values for the IC50 at RET V804L and on wild type RET were 10 to 100 nM and greater than 100 nM, respectively.
Taken in the same sequence, the figures for `CO[C@]1(C(=O)N[C@@H](C)c2ccc(-n3cc(F)cn3)nc2)CC[C@@](O)(c2cc(C)cc(Nc3cc(C)[nH]n3)n2)CC1` [Compound 138] were less than 10 nM and less than 10 nM.
In the case of `Cc1cc(Nc2cc(C)[nH]n2)nc([C@H]2CC[C@H](C(=O)N[C@@H](C)c3ccc(-n4cccn4)nc3)CC2)n1` [Compound 103], the concentration for half-maximal inhibition (IC50) at RET V804L and at wild type RET was less than 10 nM throughout.
Turning to `Cc1cc(Nc2cc(C)[nH]n2)nc([C@]2(O)CC[C@H](C(=O)N[C@@H](C)c3ccc(-n4cc(F)cn4)nc3)CC2)c1` [Compound 119], the half-maximal inhibitory concentration (IC50) on RET V804L and on wild type RET was greater than 100 nM each time.
In the case of `Cc1cc(Nc2cc(C)[nH]n2)nc([C@@]2(O)CC[C@H](C(=O)NCc3ccc(-n4cccn4)nc3)[C@H](C)C2)c1` [Compound 107], the IC50 at RET V804L and at wild type RET was less than 10 nM each time.
Turning to `Cc1cc(Nc2cc(C)[nH]n2)nc([C@H]2CC[C@H](C(=O)NCc3ccc(-n4cccn4)nc3)CC2)n1` [Compound 101], the half-maximal inhibitory concentration (IC50) at RET V804L and on wild type RET was less than 10 nM throughout.
For `Cc1cc(Nc2cc(C)[nH]n2)nc([C@H]2CC[C@H](C(=O)NCc3ccc(-n4cc(Cl)cn4)nc3)CC2)n1` [Compound 113], the IC50 on RET V804L and on wild type RET was less than 10 nM throughout.
Consider `Cc1cc(Nc2cc(C)[nH]n2)nc([C@]2(O)CC[C@@H](C(=O)NCc3ccc(-n4cccn4)nc3)C(C)(C)C2)c1` [Compound 114], for which the concentration for half-maximal inhibition (IC50) at RET V804L and at wild type RET was less than 10 nM in each case.
For the molecule `CO[C@]1(C(=O)N[C@@H](C)c2cnc(-n3cc(F)cn3)cn2)CC[C@H](c2nc(C)cc(Nc3cc(C)[nH]n3)n2)CC1` [Compound 131], the IC50 on RET V804L and at wild type RET was less than 10 nM throughout.
For `Cc1cc(Nc2cc(C)[nH]n2)nc([C@]2(O)CC[C@@H](C(=O)N[C@@H](C)c3ccc(-n4cc(F)cn4)nc3)CC2)c1` [Compound 120, (1s,4R)—N—((S)-1-(6-(4-fluoro-1H-pyrazol-1-yl)pyridin-3-yl)ethyl)-4-hydroxy-4-(4-methyl-6-(5-methyl-1H-pyrazol-3-ylamino)pyridin-2-yl)cyclohexanecarboxamide], the IC50 on RET V804L and at wild type RET was less than 10 nM in each case.
Take `Cc1cc(Nc2cc(C)[nH]n2)nc([C@]2(O)CC[C@@H](C(=O)N[C@@H](C)c3ccc(-n4cc(F)cn4)nc3)OC2)c1` [Compound 146]: the IC50 at RET V804L and on wild type RET was less than 10 nM in each case.
`CCO[C@]1(C(=O)N[C@@H](C)c2ccc(-n3cc(F)cn3)nc2)CC[C@H](c2nc(C)cc(Nc3cc(C)[nH]n3)n2)CC1` [Compound 136]: the 50% inhibitory concentration (IC50) at RET V804L and on wild type RET was less than 10 nM in each case.
As for `Cc1cc(Nc2cc(C)[nH]n2)nc([C@H]2CC[C@@H](C(=O)NCc3ccc(-n4cccn4)nc3)CC2)n1` [Compound 100], the half-inhibitory concentration (IC50) at RET V804L and at wild type RET was greater than 100 nM each time.
In the case of `Cc1cc(Nc2cc(C)[nH]n2)nc([C@H]2CC[C@@H](C(=O)N[C@@H](C)c3ccc(-n4cccn4)nc3)CC2)n1` [Compound 102], the IC50 at RET V804L and on wild type RET was greater than 100 nM in each case.
In the case of `CO[C@]1(C(=O)NCc2cnc(-n3cc(F)cn3)cn2)CC[C@H](c2nc(C)cc(Nc3cc(C)[nH]n3)n2)CC1` [Compound 150], the IC50 at RET V804L and on wild type RET was less than 10 nM in each case.
On to `Cc1cc(Nc2cc(C)[nH]n2)nc(C2=CCC(C(=O)N[C@@H](C)c3ccc(-n4cc(F)cn4)nc3)CC2)n1` (stereo partly shown) [Compound 144], for which the IC50 on RET V804L and on wild type RET was less than 10 nM each time.
Take `Cc1cc(Nc2cc(C)[nH]n2)nc([C@@H]2CC[C@@H](C(=O)NCc3ccc(-n4cccn4)nc3)[C@@H](C)C2)n1` [Compound 104]: the IC50 on RET V804L and on wild type RET was greater than 100 nM throughout.
